Results reported in patent publication US9453849B2, “Methods for staining cells for identification and sorting” (PREMIUM GENETICS (UK) LIMITED, priority 2005, dated 2016).
Where two headings read alike, the source gives them in different places.

Columns and labels:
cell membranes = details: not told; cited from earlier work
DNA = details: cited from earlier work

Excerpt for Bovine sperm: A sample cell was formed by two parallel glass slides coated with 1,500-2000 angstroms (Å) of indium tin oxide (ITO). The slides were separated by fragments of number zero glass cover slips, yielding a slide separation of 100 millimeters (mm).
The sample cell was connected to a resistor-capacitator (RC) circuit by alligator clips. A direct current (DC) power supply was used to charge a capacitor. When a switch was thrown, the discharging capacitor generated a time-dependant and spatially uniform electric field across the sample. An oscilloscope was used to monitor the voltage across the sample cell as a function of time.
The RC circuit formed by the sample cell and capacitor allowed for a well-controlled electric field to be generated. The resistance (R) of the circuit was left floating—that is, determined by the geometry and content of the sample cell. Typical R values ranged from 2-10,000 watts (W) depending primarily on the electrical conductivity of the buffer. The capacitance was varied from 0.1 millifarads (mF) to 1000 mF.
Bovine sperm that had been previously frozen were thawed for 60 seconds in a 96° F. water bath. Sperm were then centrifuged at 2,000 rotations per minute (rpm) for two minutes and the supernatant decanted. Sperm were then re-suspended with 0.35 M sucrose to partially dehydrate the sperm. The sperm solution was then incubated at 96° F. for 15 minutes and then transferred to the sample cell of the electroporation unit.
A voltage was applied to the capacitor circuit, and then the power supply was disconnected. A switch was then thrown and the capacitor discharged across the sample cell. These steps were carried out within 15 seconds of transferring the sperm to the sample cell to retain a random orientation of sperm with respect to the electric field. Electroporation was carried out on sperm in isotonic (0.25 M sucrose) and hypertonic (0.35 M sucrose) solutions. In each case, 10 V was applied to the capacitor and a time constant of 0.26 milliseconds (ms) measured.
A solution of 0.1 M sucrose and the DNA-specific dye, propidium iodide, was then injected into the sample cell. Fluorescence microscopy is used to image the sperm.
To distinguish fluorescent dead cells from fluorescent live cells, sperm motility was assessed.

Compound | permeability to cell membranes (Applications) (cell membranes) | DNA affinity (Applications) (DNA) | base selectivity (Applications) (DNA) | also measured
CC[N+](C)(CC)CCC[n+]1c(-c2ccccc2)c2cc(N)ccc2c2ccc(N)cc21.[I-].[I-] [propidium iodide] | Impermeant |  |  | increase in the number of damaged and non-motile sperm (Bovine sperm): 68%; loss of motile sperm compared to the control (Bovine sperm): 70%; motile and fluorescent sperm (Bovine sperm; control samples unexposed to electric fields): did not yield motile and fluorescent sperm; motile and fluorescent sperm (Bovine sperm; electroporated, 10 V, time constant 0.26 ms, hypertonic/hypotonic solution (0.35 M sucrose, then 0.1 M sucrose with dye)): motile and fluorescent sperm were observed; motile and fluorescent sperm (Bovine sperm; electroporated, 10 V, time constant 0.26 ms, isotonic solution (0.25 M sucrose)): motile and fluorescent sperm were observed; enhancement of the number of motile and fluorescent sperm (Bovine sperm; hypertonic/hypotonic solution compared with isotonic solution): approximately five-ten; fluorescence of observed motile sperm (Bovine sperm; hypertonic/hypotonic solution exposed to the electric field): displayed fluorescence
CC[n+]1c(/C=C/C=C/c2ccc(N(C)C)cc2)ccc2cc(N(C)C)ccc21.[O-][Cl+3]([O-])([O-])[O-] [LDS 751] | Permeant |  |  | 
Ethidium homodimer-2 [Ethidium homodimer-2 (EthD-2)] |  | Very high-affinity DNA labeling |  | 
Ethidium homodimer-1 [Ethidium homodimer-1 (EthD-1)] |  | High-affinity DNA labeling |  | 
COc1ccc2nc3cc(Cl)ccc3c(NCCCNCCCCNCCCNc3c4ccc(Cl)cc4nc4ccc(OC)cc34)c2c1 [Acridine homodimer] | Impermeant | High-affinity DNA binding | AT-selective | 
COc1ccc2nc3cc(Cl)ccc3c(N)c2c1 [ACMA, 9-amino-6-chloro-2-methoxyactridine] |  |  | AT-selective | 
Cc1c2oc3c(C)c(N)cc(C(=O)N[C@@H]4C(=O)N[C@H](C(C)C)C(=O)N5CCC[C@H]5C(=O)N(C)CC(=O)N(C)[C@@H](C(C)C)C(=O)O[C@@H]4C)c3nc-2c(C(=O)N[C@@H]2C(=O)N[C@H](C(C)C)C(=O)N3CCC[C@H]3C(=O)N(C)CC(=O)N(C)[C@@H](C(C)C)C(=O)O[C@@H]2C)c(N)c1=O [7-AAD (7-amino-actinomycin D), 7-amino-actinomycin D] |  |  | GC-selective | 
N=C(N)c1ccc(-c2cc3ccc(C(=N)N)cc3[nH]2)cc1 [DAPI] | Semi-permeant |  | AT-selective | 
CN1CCN(c2ccc3nc(-c4ccc5nc(-c6ccc(N(C)C)cc6)[nH]c5c4)[nH]c3c2)CC1 [Hoechst 34580] |  |  | AT-selective | dsDNA selectivity (Applications) (DNA): dsDNA-selective binding
